A word on the IC50: it is the concentration needed to halve the response being measured.

For the experiment, the target named is T1, recombinant PTP1B catalytic domain (Homo sapiens, UniProt P18031).
T1 construct: made in house
T1 sequence (P18031 3-277 limits assumed): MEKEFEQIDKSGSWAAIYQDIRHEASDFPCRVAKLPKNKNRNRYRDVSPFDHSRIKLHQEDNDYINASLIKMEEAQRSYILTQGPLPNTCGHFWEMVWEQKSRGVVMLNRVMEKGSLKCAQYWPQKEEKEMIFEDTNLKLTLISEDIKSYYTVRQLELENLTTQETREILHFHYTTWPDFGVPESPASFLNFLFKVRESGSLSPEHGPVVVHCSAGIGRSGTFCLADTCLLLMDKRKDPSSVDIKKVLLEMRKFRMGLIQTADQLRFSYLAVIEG
Briefly: PTP1B inhibition assay (pNPP substrate). It is filed as biochemical. Particulars: pNPP as substrate, absorbance at 405 nm, 37 °C; read-out: IC50, inhibitory activity against PTP1B. The protocol: The expressed and purified methods of recombinant PTP1B catalytic domain were the same as references (Liu et al., [2018]). The dephosphorylation of p-nitrophenyl phosphate (pNPP) generated the product pNP, which can be monitored at an absorbance for 405 nm. The compounds were pre-incubated with the enzyme at 37 °C for 5 min. […] After incubation at 37°C for 15 min, the reaction was […] using 0.5 M pNPP (12.5 μL). After initializing the enzymatic reaction, the plate was then read every 20 s for 15 min in the microplate reader at 405 nm. […] The equation used was: [(Ablank-Asample)/Ablank] × 100%. The IC50 values were determined by linear or non-linear regression analysis of the concentration-response data curve.
Consider `C/C(=C\CC/C(=C/CC/C(=C/C(=O)c1cc(O)ccc1O)C(=O)O)CO)COC(=O)/C=C/c1ccc(O)cc1` [Compound 1, Ganoduriporol F], for which the IC50 came to 17 µM. For `C/C(=C\CCC(CO)CCC/C(=C/C(=O)c1cc(O)ccc1O)C(=O)O)COC(=O)/C=C/c1ccc(O)c(O)c1` (stereo not shown) [Compound 2, Ganoduriporol G], the IC50 is 20 µM. To `CC(=O)OCC(CC/C=C(/CC(=O)c1cc(O)ccc1O)C(=O)O)CC/C=C(\C)COC(=O)/C=C/c1ccc(O)cc1` (stereo not shown) [Compound 3, Ganoduriporol H] belongs 19 µM; to `CC(=O)OCC(CC/C=C(\C)COC(=O)/C=C/c1ccc(O)cc1)CCC/C(=C/C(=O)c1cc(O)ccc1O)C(=O)O` (stereo not shown) [Compound 4, Ganoduriporol I], 23 µM.

The record behind these values is PMC7176929, “Meroterpenoids With Protein Tyrosine Phosphatase 1B Inhibitory Activities From the Fruiting Bodies of Ganoderma ahmadii” (Frontiers in Chemistry, 2020).
